According to patent publication US5362729A, “Dihydropyridine derivatives useful in antitumor therapy” (Farmitalia Carlo ERBA S.r.l., priority 1991, dated 1994):
Read-outs that look alike come from different tables or passages of the source.

Tests used:
[1] = tested on: LoVo/DX cells; assay: single-cell plating technique, colony-inhibiting efficacy of Doxorubicin alone or in combination on Doxorubicin-resistant cells; format: cell-based, human
Experimental: (§1) LoVo and LoVo/DX cells (human colon adenocarcinoma cell lines sensitive and resistant to Doxorubicin, respectively) were maintained at 37° C. in a humidified atmosphere of 5% CO2. Culture medium was Ham's F12 supplemented with 10% foetal calf serum, 1% vitamins (BME vitamin solution 100 X), and 1% glutamine (200 mM). Both cell lines were passaged twice weekly.
(§2) Doxorubicin, from Farmitalia Carlo erba, was dissolved in sterile water, and the concentrations were checked spectro-photometrically. Solutions of the compounds of the invention using ethanol were prepared immediately before use.
(§3) A single-cell plating technique was utilized for measuring the colony-inhibiting efficacy of drugs alone or drug combinations.
(§4) Exponentially growing LoVo and LoVo/DX cells were adjusted to the concentration of 300 cells.ml^-1 and seeded in 36mm Petri dishes (2 ml/dish).
(§5) After 48h incubation, medium was withdrawn and solutions of invention compounds alone, or Doxorubicin alone or solutions of the combination of both compounds, were added. […]
(§6) Survival was determined as the percentage of colonies in treated samples vs untreated ones. For combination of the compounds of the invention and doxorubicin, survival was calculated using as controls the number of colonies in samples treated with compounds of the invention alone.

[2] = tested on: LoVo cells; assay: single-cell plating technique, colony-inhibiting efficacy of Doxorubicin alone or in combination on Doxorubicin-sensitive cells; format: cell-based, human; conditions: Doxorubicin alone
Experimental: as §1, §2, §3, §4, §5, §6

[3] = orientative acute toxicity after single oral administration to mice; conditions: mouse, in vivo, assessed on the seventh day
Experimental: Mice which had been deprived of food for nine hours were treated orally with single administrations of increasing doses of compounds of the invention, then housed and normally fed. For example the orientative acut toxicity (LD50) of the compound FCE 24265, assessed on the seventh day after treatment, was higher than 800 mg/kg. In view of their low toxicity the compounds of the invention can be safely used in medicine.

SMILES | R.I. (Resistance Index) ([1]; Doxorubicin alone, LoVo/DX vs LoVo cells, 240 min) | IC50 ([1]; Homo sapiens, LoVo/DX, 4 h, read-out: IC50 = Concentration inhibiting 50% of colony formation) [µg/mL] | IC50 [2] [µg/mL] | IC50 ([2]; Homo sapiens, LoVo, read-out: IC50) [µg/mL] | LD50 at 168 h [3] [mg/kg]
COc1cccc2c1C(=O)c1c(O)c3c(c(O)c1C2=O)C[C@@](O)(C(=O)CO)C[C@@H]3O[C@H]1C[C@H](N)[C@H](O)[C@H](C)O1 [Doxorubicin] | 49.1 | 4.91 | 0.1 | ~0.1 | –
CCOC(=O)C1=C(C)NC(C)=C(C(=O)OCC)C1c1cccc(-n2ccnc2)c1 [FCE 24265, 1,4-Dihydro-2,6-dimethyl-4-[3-(1H-imidazol-1-yl)phenyl]-3,5-pyridinedicarboxylic acid, diethyl ester] | – | – | – | – | > 800
